Test results: patent US20070249590A1, “Substituted indolo[2,3-a]pyrrolo[3,4-c]carbazole compounds useful in treating kinase disorders” (priority 2005, published 2007)

What follows are molecules tested against T1, JAK3 (JH1 and JH2 domain) (Homo sapiens, UniProt P52333) (assay: JAK3 Kinase Assay (ELISA of peptide substrate phosphorylation)). Settings: purified JAK3 enzyme, 10 μM ATP, biotinylated peptide substrate, 1 hour at room temperature.
T1 sequence (P52333 521-1111 limits assumed): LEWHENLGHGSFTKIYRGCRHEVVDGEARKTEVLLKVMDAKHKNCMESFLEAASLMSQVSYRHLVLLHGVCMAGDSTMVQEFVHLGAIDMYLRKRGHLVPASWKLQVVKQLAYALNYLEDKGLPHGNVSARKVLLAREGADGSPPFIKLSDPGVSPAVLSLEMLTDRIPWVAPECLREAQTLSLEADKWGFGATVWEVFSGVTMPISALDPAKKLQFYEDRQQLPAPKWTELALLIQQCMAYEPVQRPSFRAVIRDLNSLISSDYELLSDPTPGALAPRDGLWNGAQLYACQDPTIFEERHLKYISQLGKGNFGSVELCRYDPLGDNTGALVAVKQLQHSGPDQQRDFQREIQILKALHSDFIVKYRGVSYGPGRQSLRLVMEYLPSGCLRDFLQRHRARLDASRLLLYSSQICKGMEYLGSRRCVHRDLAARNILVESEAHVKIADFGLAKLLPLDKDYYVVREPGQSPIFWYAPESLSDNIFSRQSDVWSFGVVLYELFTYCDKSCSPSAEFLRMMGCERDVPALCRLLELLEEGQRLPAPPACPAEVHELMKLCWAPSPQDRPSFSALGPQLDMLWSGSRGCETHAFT
Format: biochemical
Procedure, shortened: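 Sf21-baculovirus-expressed JAK3 (JH1+JH2), glutathione-bead purified, with biotinylated peptide substrate (in buffer containing 10 μM ATP) in HEPES pH 7.5/MgCl2/DTT, 1 h RT. Product was captured on Neutravidin, detected with HRP anti-phosphotyrosine (PY99)/TMB, OD 450/650 nm. Triplicate 16-point half-log series from 200 μM gave IC50; otherwise % inhibition at 1 μM.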

IC50 [nM]	SMILES
166	COc1ccccc1CNC(=O)OCC1(O)Cn2c3ccccc3c3c4c(c5c6ccccc6n(c5c32)C1)C(=O)NC4 (centres unmarked) [Cpd 174, 12,13-{2-hydroxy-2-[(2-methoxy-benzyl)carbamoyloxymethyl]-propan-1,3-yl}-6,7,12,13-tetrahydro-5-oxo-5H-indolo[2,3-a]pyrrolo[3,4-c]carbazole]
154	O=C(NC1CCNCC1)OCC1(O)Cn2c3ccccc3c3c4c(c5c6ccccc6n(c5c32)C1)C(=O)NC4 (centres unmarked) [Cpd 178, 12,13-[2-hydroxy-2-(piperidin-4-yl-carbamoyloxymethyl)-propan-1,3-yl]-6,7,12,13-tetrahydro-5-oxo-5H-indolo[2,3-a]pyrrolo[3,4-c]carbazole]
> 200	O=C(NCCc1ccccn1)OCC1Cn2c3ccccc3c3c4c(c5c6ccccc6n(c5c32)C1)C(=O)NC4 (centres unmarked) [Cpd 160, 12,13-{2-[(2-pyridin-2-yl-ethyl)carbamoyloxymethyl]-propan-1,3-yl}-6,7,12,13-tetrahydro-5-oxo-5H-indolo[2,3-a]pyrrolo[3,4-c]carbazole]
31	O=C(NC1CCN(Cc2ccccc2)CC1)OCC1(O)Cn2c3ccccc3c3c4c(c5c6ccccc6n(c5c32)C1)C(=O)NC4 (centres unmarked) [Cpd 145, 12,13-{2-hydroxy-2-[(1-benzyl-piperidin-4-yl)carbamoyloxymethyl]-propan-1,3-yl}-6,7,12,13-tetrahydro-5-oxo-5H-indolo[2,3-a]pyrrolo[3,4-c]carbazole]
11	Cc1ccc(CNC(=O)OC2CCn3c4ccccc4c4c5c(c6c7ccccc7n(c6c43)C2)C(=O)NC5=O)o1 (centres unmarked) [Cpd 48, 12,13-(2-{[(5-methyl-furan-2-yl)methyl]carbamoyloxy}-butan-1,4-yl)-12,13-dihydro-5,7-dioxo-6H-indolo[2,3-a]pyrrolo[3,4-c]carbazole]
123	O=C1NCc2c1c1c3ccccc3n3c1c1c2c2ccccc2n1CC(COC(=O)N1CCN(c2ccc(O)cc2)CC1)C3 (centres unmarked) [Cpd 158, 12,13-(2-{[4-(4-hydroxy-phenyl)piperazin-1-yl]carbonyloxymethyl}-propan-1,3-yl)-6,7,12,13-tetrahydro-5-oxo-5H-indolo[2,3-a]pyrrolo[3,4-c]carbazole]
202	O=C1NCc2c1c1c3ccccc3n3c1c1c2c2ccccc2n1CC(COC(=O)N1CCN(Cc2ccc4c(c2)OCO4)CC1)C3 (centres unmarked) [Cpd 170, 12,13-(2-{[4-(benzo[1,3]dioxol-5-ylmethyl)piperazin-1-yl]carbonyloxymethyl}-propan-1,3-yl}-6,7,12,13-tetrahydro-5-oxo-5H-indolo[2,3-a]pyrrolo[3,4-c]carbazole]
460	O=C1NC(=O)c2c1c1c3ccccc3n3c1c1c2c2ccccc2n1CC(OC(=O)N1CCCNCC1)C(O)C3 (centres unmarked) [Cpd 111, 12,13-{2-[(hexahydro-1H-1,4-diazepin-1-yl)carbonyloxy]-3-hydroxy-butan-1,4-yl}-12,13-dihydro-5,7-dioxo-6H-indolo[2,3-a]pyrrolo[3,4-c]carbazole]
39	COc1ccc(CCNC(=O)OC2CCn3c4ccccc4c4c5c(c6c7ccccc7n(c6c43)C2)C(=O)NC5=O)cc1OC (centres unmarked) [Cpd 49, 12,13-(2-{[2-(3,4-dimethoxy-phenyl)ethyl]carbamoyloxy}-butan-1,4-yl)-12,13-dihydro-5,7-dioxo-6H-indolo[2,3-a]pyrrolo[3,4-c]carbazole]
40	O=C1NC(=O)c2c1c1c3ccccc3n3c1c1c2c2ccccc2n1CC(OC(=O)N1CCN(CCO)CC1)CC3 (centres unmarked) [Cpd 66, 12,13-(2-{[4-(2-hydroxy-ethyl)piperazin-1-yl]carbonyloxy}-butan-1,4-yl)-12,13-dihydro-5,7-dioxo-6H-indolo[2,3-a]pyrrolo[3,4-c]carbazole]
19	O=C1NCc2c1c1c3cc(/C=N/NC4=NCCN4)ccc3n3c1c1c2c2ccccc2n1CC(O)C(O)C3 (centres unmarked) [Cpd 200, 3-[(4,5-dihydro-1H-imidazol-2-yl)hydrazomethylene]-12,13-(2,3-dihydroxy-butan-1,4-yl)-6,7,12,13-tetrahydro-5-oxo-5H-indolo[2,3-a]pyrrolo[3,4-c]carbazole]
159	O=C1NC(=O)c2c1c1c3ccccc3n3c1c1c2c2ccccc2n1CC(OC(=O)N1CCN(C(=O)CN2CCCC2)CC1)C(O)C3 (centres unmarked) [Cpd 95, 12,13-[2-({4-[(pyrrolidin-1-yl-methyl)carbonyl]piperazin-1-yl}carbonyloxy)-3-hydroxy-butan-1,4-yl]-12,13-dihydro-5,7-dioxo-6H-indolo[2,3-a]pyrrolo[3,4-c]carbazole]
5	O=C1NC(=O)c2c1c1c3ccccc3n3c1c1c2c2ccccc2n1CC(O)CC3 (centres unmarked) [Cpd 7, 12,13-(2-hydroxy-butan-1,4-yl)-12,13-dihydro-5,7-dioxo-6H-indolo[2,3-a]pyrrolo[3,4-c]carbazole]
202	O=C1NCc2c1c1c3ccccc3n3c1c1c2c2ccccc2n1CC(COC(=O)N1CCN(C(=O)OCc2ccccc2)CC1)C3 (centres unmarked) [Cpd 167, 12,13-(2-{[4-(benzyloxycarbonyl)piperazin-1-yl]carbonyloxymethyl}-propan-1,3-yl)-6,7,12,13-tetrahydro-5-oxo-5H-indolo[2,3-a]pyrrolo[3,4-c]carbazole]
68	O=C1NCc2c1c1c3ccccc3n3c1c1c2c2ccccc2n1Cc1c[nH]cc1C3 [Cpd 30, 12,13-(1H-pyrrol[3,4-b]butan-1,4-yl)-6,7,12,13-tetrahydro-5-oxo-5H-indolo[2,3-a]pyrrolo[3,4-c]carbazole]
~200	Cc1ccc(CNC(=O)OCC2Cn3c4ccccc4c4c5c(c6c7ccccc7n(c6c43)C2)C(=O)NC5)o1 (centres unmarked) [Cpd 156, 12,13-(2-{[(5-methyl-furan-2-yl)methyl]carbamoyloxymethyl}-propan-1,3-yl)-6,7,12,13-tetrahydro-5-oxo-5H-indolo[2,3-a]pyrrolo[3,4-c]carbazole]
23	CN1CCN(CCCNC(=O)OCC2(O)Cn3c4ccccc4c4c5c(c6c7ccccc7n(c6c43)C2)C(=O)NC5)CC1 (centres unmarked) [Cpd 151, 12,13-(2-hydroxy-2-{[3-(4-methyl-piperazin-1-yl)prop-1-yl]carbamoyloxymethyl}-propan-1,3-yl)-6,7,12,13-tetrahydro-5-oxo-5H-indolo[2,3-a]pyrrolo[3,4-c]carbazole]
48	O=C1NC(=O)c2c1c1c3ccccc3n3c1c1c2c2ccccc2n1CC(O)(C(=O)N1CCN(CCO)CC1)C(O)C3 (centres unmarked) [Cpd 130]
17	O=C1NC(=O)c2c1c1c3ccccc3n3c1c1c2c2ccccc2n1CC(O)(C(=O)NCCCN1CCOCC1)C(O)C3 (centres unmarked) [Cpd 120, 12,13-{2-[(3-morpholin-4-yl-prop-1-yl)carbamoyl]-2,3-dihydroxy-butan-1,4-yl}-12,13-dihydro-5,7-dioxo-6H-indolo[2,3-a]pyrrolo[3,4-c]carbazole]
53	O=C1NC(=O)c2c1c1c3ccccc3n3c1c1c2c2ccccc2n1CC(O)(C(=O)N1CCN(CCN2CCOCC2)CC1)C(O)C3 (centres unmarked) [Cpd 134, 12,13-(2-{[4-(2-morpholin-4-yl-ethyl)piperazin-1-yl]carbonyl}-2,3-dihydroxy-butan-1,4-yl)-12,13-dihydro-5,7-dioxo-6H-indolo[2,3-a]pyrrolo[3,4-c]carbazole]
30	O=C(NCCCn1ccnc1)OC1CCn2c3ccccc3c3c4c(c5c6ccccc6n(c5c32)C1)C(=O)NC4=O (centres unmarked) [Cpd 36, 12,13-{2-[(3-imidazol-1-yl-prop-1-yl)carbamoyloxy]-butan-1,4-yl}-12,13-dihydro-5,7-dioxo-6H-indolo[2,3-a]pyrrolo[3,4-c]carbazole]
1670	COC[C@H](C)NC(=O)OC1CCn2c3ccccc3c3c4c(c5c6ccccc6n(c5c32)CC1)C(=O)NC4 (stereo partly drawn) [Cpd 182, 12,13-[3-({2-[(1S)-2-methoxy-1-methyl]ethyl}carbamoyloxy)-pentan-1,5-yl]-6,7,12,13-tetrahydro-5-oxo-5H-indolo[2,3-a]pyrrolo[3,4-c]carbazole]
47	O=C(NC1CCNCC1)OC1Cn2c3ccccc3c3c4c(c5c6ccccc6n(c5c32)CC1O)C(=O)NC4=O (centres unmarked) [Cpd 113, 12,13-[2-(piperidin-4-yl-carbamoyloxy)-3-hydroxy-butan-1,4-yl]-12,13-dihydro-5,7-dioxo-6H-indolo[2,3-a]pyrrolo[3,4-c]carbazole]
578	O=C1NCc2c1c1c3ccccc3n3c1c1c2c2ccccc2n1CC(COC(=O)N1CCN(CCOCCO)CC1)C3 (centres unmarked) [Cpd 166, 12,13-[2-({4-[2-(2-hydroxy-ethoxy)ethyl]piperazin-1-yl}carbonyloxymethyl)-propan-1,3-yl]-6,7,12,13-tetrahydro-5-oxo-5H-indolo[2,3-a]pyrrolo[3,4-c]carbazole]
58	O=C1NCc2c1c1c3ccccc3n3c1c1c2c2ccccc2n1CCC(O)CC3 (centres unmarked) [Cpd 28, 12,13-(3-hydroxy-pentan-1,5-yl)-6,7,12,13-tetrahydro-5-oxo-5H-indolo[2,3-a]pyrrolo[3,4-c]carbazole]

SMILES	IC50 [nM]
CC(C)(C)OC(=O)NC1CCN(C(=O)OCC2Cn3c4ccccc4c4c5c(c6c7ccccc7n(c6c43)C2)C(=O)NC5)CC1 (centres unmarked) [Cpd 172, 12,13-(2-{[4-(t-butoxycarbonylamino)piperidin-1-yl]carbonyloxymethyl}-propan-1,3-yl)-6,7,12,13-tetrahydro-5-oxo-5H-indolo[2,3-a]pyrrolo[3,4-c]carbazole]	120
